Measured values reported in PubChem BioAssay AID248 (DTP/NCI, 2004).
“And” between values parts separate entries of the source, which are not always exact repeats. Equal values may be shown once. Inconclusive results and toxic doses are left out. Rule as the data show it: active = T/C of 150% or more; inactive = T/C below 125%.

System: L1210 leukemia ip in BDF1 mice, survival T/C
Assay: NCI In Vivo Anticancer Drug Screen. Data for tumor model L1210 Leukemia (intraperitoneal) in B6D2F1 (BDF1) mice
Conditions: endpoint: mean survival time, higher = longer survival
How it was run: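 Each compound was tested against a transplantable tumor grown in mice. The endpoint was survival, with treated animals benchmarked against vehicle controls as a simple ratio.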

[1] = dose: 100.0 mg/kg/injection, schedule: Q01DX001 (ip), vehicle: saline
[2] = dose: 200.0 mg/kg/injection, schedule: Q01DX001 (ip), vehicle: saline
[3] = dose: 100.0 mg/kg/injection, schedule: Q01DX009 (ip), vehicle: Klucel (hydroxypropylcellulose) (HPC)
[4] = dose: 100.0 mg/kg/injection, schedule: Q04DX003 (ip), vehicle: Klucel (hydroxypropylcellulose) (HPC)
[5] = dose: 200.0 mg/kg/injection, schedule: Q04DX003 (ip), vehicle: Klucel (hydroxypropylcellulose) (HPC)
[6] = dose: 400.0 mg/kg/injection, schedule: Q04DX003 (ip), vehicle: Klucel (hydroxypropylcellulose) (HPC)
[7] = dose: 100.0 mg/kg/injection, schedule: Q04DX003 (ip), vehicle: saline
[8] = dose: 200.0 mg/kg/injection, schedule: Q04DX003 (ip), vehicle: saline
[9] = dose: 100.0 mg/kg/injection, schedule: Q04DX002 (ip), vehicle: Klucel (hydroxypropylcellulose) (HPC)
[10] = dose: 200.0 mg/kg/injection, schedule: Q04DX002 (ip), vehicle: Klucel (hydroxypropylcellulose) (HPC)
[11] = dose: 400.0 mg/kg/injection, schedule: Q04DX002 (ip), vehicle: Klucel (hydroxypropylcellulose) (HPC)
[12] = dose: 100.0 mg/kg/injection, schedule: Q01DX001 (ip), vehicle: Klucel (hydroxypropylcellulose) (HPC)
[13] = dose: 200.0 mg/kg/injection, schedule: Q01DX001 (ip), vehicle: Klucel (hydroxypropylcellulose) (HPC)
[14] = dose: 400.0 mg/kg/injection, schedule: Q01DX001 (ip), vehicle: Klucel (hydroxypropylcellulose) (HPC)
[15] = dose: 25.0 mg/kg/injection, schedule: Q01DX009 (ip), vehicle: Klucel (hydroxypropylcellulose) (HPC)
[16] = dose: 25.0 mg/kg/injection, schedule: Q04DX003 (ip), vehicle: Klucel (hydroxypropylcellulose) (HPC)
[17] = dose: 50.0 mg/kg/injection, schedule: Q01DX009 (ip), vehicle: Klucel (hydroxypropylcellulose) (HPC)
[18] = dose: 50.0 mg/kg/injection, schedule: Q04DX003 (ip), vehicle: Klucel (hydroxypropylcellulose) (HPC)
[19] = dose: 100.0 mg/kg/injection, schedule: Q01DX009 (ip), vehicle: saline with Tween-80
[20] = dose: 200.0 mg/kg/injection, schedule: Q01DX009 (ip), vehicle: saline with Tween-80
[21] = dose: 400.0 mg/kg/injection, schedule: Q01DX009 (ip), vehicle: saline with Tween-80

Measured: T/C

CCCCC(CC1CCCCC1)C(=O)O (configuration not stated)
inactive: dose: 100.0 mg/kg/injection, schedule: Q01DX001 (ip), vehicle: saline with Tween-80 91 % of control | dose: 200.0 mg/kg/injection, schedule: Q01DX001 (ip), vehicle: saline with Tween-80 95 % of control | dose: 400.0 mg/kg/injection, schedule: Q01DX001 (ip), vehicle: saline with Tween-80 88 % of control

Cc1ccc(SCCCN)cc1
inactive: dose: 75.0 mg/kg/injection, schedule: Q01DX001 (ip), vehicle: saline 100 % of control | dose: 150.0 mg/kg/injection, schedule: Q01DX001 (ip), vehicle: saline 94 % of control

Cc1nc2ccccc2c(=O)n1N
inactive: [1] 111 % of control | [2] 105 % of control

CC1(CO)COCOC1
inactive: dose: 50.0 mg/kg/injection, schedule: Q01DX009 (ip), vehicle: acetone 104 % of control | dose: 100.0 mg/kg/injection, schedule: Q01DX009 (ip), vehicle: acetone 108 % of control | dose: 100.0 mg/kg/injection, schedule: Q04DX003 (ip), vehicle: acetone 95 % of control | dose: 200.0 mg/kg/injection, schedule: Q01DX009 (ip), vehicle: acetone 104 % of control | dose: 200.0 mg/kg/injection, schedule: Q04DX003 (ip), vehicle: acetone 105 % of control | dose: 400.0 mg/kg/injection, schedule: Q04DX003 (ip), vehicle: acetone 97 % of control

COC(=O)C1CC(C2c3ccccc3-c3ccccc32)CCC1N (configuration not stated)
inactive: dose: 200.0 mg/kg/injection, schedule: Q04DX003 (ip), vehicle: saline with Tween-80 100 % of control

Cc1c([N+](=O)[O-])c(C)c([N+](=O)[O-])c(C(C)(C)C)c1[N+](=O)[O-]
inactive: [3] 93 % of control | [4] 92 % of control | dose: 200.0 mg/kg/injection, schedule: Q01DX009 (ip), vehicle: Klucel (hydroxypropylcellulose) (HPC) 94 % of control | [5] 100 % of control | dose: 400.0 mg/kg/injection, schedule: Q01DX009 (ip), vehicle: Klucel (hydroxypropylcellulose) (HPC) 96 % of control | [6] 94 % of control

Nc1ncnc2c1ncn2C1OC(COS(N)(=O)=O)C(O)C1O (configuration not stated)
inactive: dose: 0.5 mg/kg/injection, schedule: Q01DX001 (ip), vehicle: saline 113 % of control

O=C(O)c1c(Cl)c(Cl)c(Cl)c(Cl)c1-c1c2ccc(=O)c(O)c-2oc2c(O)c(O)ccc12
inactive: [7] 102 % of control | [8] 93 % of control

S=c1c2[nH]cnc2ncn1C1CCCCC1
inactive: dose: 4.4 mg/kg/injection, schedule: Q01DX009 (ip), vehicle: saline with Tween-80 96 % of control | dose: 6.7 mg/kg/injection, schedule: Q01DX009 (ip), vehicle: saline with Tween-80 102 % of control | dose: 10.0 mg/kg/injection, schedule: Q01DX009 (ip), vehicle: saline with Tween-80 90 % of control | dose: 15.0 mg/kg/injection, schedule: Q01DX009 (ip), vehicle: saline with Tween-80 95 % of control

CCCCCCOC(=O)Nc1ccc(S(=O)(=O)N(C)C)cc1
inactive: [1] 103 % of control | [2] 108 % of control | dose: 400.0 mg/kg/injection, schedule: Q01DX001 (ip), vehicle: saline 102 % of control

O=C1/C(=C2\CCc3ccccc32)Cc2ccccc21
inactive: dose: 12.5 mg/kg/injection, schedule: Q04DX002 (ip), vehicle: saline 99 % of control | dose: 25.0 mg/kg/injection, schedule: Q04DX002 (ip), vehicle: saline 96 % of control | dose: 50.0 mg/kg/injection, schedule: Q04DX002 (ip), vehicle: saline 96 % of control

CCCCNC(=O)NCCN(C)c1ccccc1
inactive: [9] 94 % of control | [10] 97 % of control | [11] 102 % of control

CC1CN(c2ccccc2)NC1=O (configuration not stated)
inactive: [7] 97 % of control | [8] 95 % of control | dose: 400.0 mg/kg/injection, schedule: Q04DX003 (ip), vehicle: saline 97 % of control

C/C(=N/N(C)C)c1ccc(C#N)cc1
inactive: [12] 112 % of control | [13] 113 % of control | [14] 105 % of control

COc1ccc(C(O)c2c(CN3CCCCC3)c3ccccc3n2C)cc1 (configuration not stated)
inactive: dose: 100.0 mg/kg/injection, schedule: Q04DX002 (ip), vehicle: saline with Tween-80 100 % of control | dose: 200.0 mg/kg/injection, schedule: Q04DX002 (ip), vehicle: saline with Tween-80 97 % of control

O=C(c1ccc(Cl)cc1)c1cccc[n+]1Cc1ccccc1
inactive: dose: 12.5 mg/kg/injection, schedule: Q04DX003 (ip), vehicle: Klucel (hydroxypropylcellulose) (HPC) 102 % of control | [15] 103 % of control | [16] 101 % of control | [17] 103 % of control | [18] 94 % of control | [3] 119 % of control | [4] 97 % of control

CCCC1(CCC)c2ccccc2C(=O)c2ccccc21
inactive: [12] 105 % of control | [4] 100 % of control | [13] 96 % of control | [5] 96 % of control | [14] 105 % of control | [6] 95 % of control

COC(=O)NCC1OC(n2cnc3c(N)ncnc32)C(O)C1O (configuration not stated)
inactive: dose: 100.0 mg/kg/injection, schedule: Q01DX005 (ip), vehicle: saline 92 % of control | dose: 200.0 mg/kg/injection, schedule: Q01DX005 (ip), vehicle: saline 94 % of control

C/C(=C\c1ccccc1)C(=O)C1C(c2ccccc2)CC(=O)C(C)C1c1ccccc1 (configuration not stated)
inactive: dose: 50.0 mg/kg/injection, schedule: Q04DX002 (ip), vehicle: saline + alcohol 98 % of control | dose: 100.0 mg/kg/injection, schedule: Q04DX002 (ip), vehicle: saline + alcohol 91 % of control | dose: 200.0 mg/kg/injection, schedule: Q04DX002 (ip), vehicle: saline + alcohol 91 % of control

Cc1ccccc1NC(=O)C1CCC(C)(C(=O)O)C1(C)C (configuration not stated)
inactive: [19] 102 % of control | [20] 102 % of control | [21] 95 % of control

c1ccc(NCc2csc3ccccc23)cc1
inactive: dose: 100.0 mg/kg/injection, schedule: Q01DX001 (ip), vehicle: carboxymethylcellulose (CMC) 98 % of control | dose: 200.0 mg/kg/injection, schedule: Q01DX001 (ip), vehicle: carboxymethylcellulose (CMC) 88 % of control | dose: 400.0 mg/kg/injection, schedule: Q01DX001 (ip), vehicle: carboxymethylcellulose (CMC) 98 % of control

CC(C)(C)C1CCC(NC(=O)C(Cl)(Cl)Cl)CC1 (configuration not stated)
inactive: dose: 6.0 mg/kg/injection, schedule: Q01DX009 (ip), vehicle: Klucel (hydroxypropylcellulose) (HPC) 100 % of control | dose: 12.0 mg/kg/injection, schedule: Q01DX009 (ip), vehicle: Klucel (hydroxypropylcellulose) (HPC) 107 % of control | [15] 96 % of control and 105 % of control | [16] 94 % of control | [17] 86 % of control | [18] 97 % of control | [4] 96 % of control

COC1C(c2ccccc2)NC(=O)C(Br)(C#N)C1c1ccccc1 (configuration not stated)
inactive: dose: 12.5 mg/kg/injection, schedule: Q01DX009 (ip), vehicle: saline with Tween-80 86 % of control | dose: 25.0 mg/kg/injection, schedule: Q01DX009 (ip), vehicle: saline with Tween-80 86 % of control | dose: 50.0 mg/kg/injection, schedule: Q01DX009 (ip), vehicle: saline with Tween-80 86 % of control

COc1ccc(CSC(=S)Nc2ccc(Cl)c(Cl)c2)cc1
inactive: dose: 50.0 mg/kg/injection, schedule: Q04DX003 (ip), vehicle: saline 101 % of control | [7] 108 % of control | [8] 93 % of control

COCCCNc1ccc(S(=O)(=O)c2ccc(N)cc2)cc1
inactive: [19] 103 % of control | [20] 95 % of control | [21] 97 % of control

Cc1ccc([N+](=O)[O-])cc1NC(=O)Oc1cc(=O)oc2ccccc12
inactive: [9] 104 % of control | [10] 90 % of control | [11] 93 % of control
